Source: US8859496B2, “Pharmaceutical composition using connective-tissue growth factor” (Postech Academy-Industry Foundation, priority 2010, dated 2014)

Columns and labels:
human FPRL1 = assay: siRNA inhibition of FPRL1 expression in HUVECs (RT-PCR); format: cell-based; conditions: siRNA 20 nM
Procedure: To inhibit transcription of human FPRL1 using siRNA, siRA to FPRL1 (sense: UUCACAUCGUGGUGGACAUdTdT (SEQ ID NO. 3), anti-sense: AUGUCCACCACGAUGUGAAdTdT (SEQ ID NO. 4)) was used. As result of BLAST search of the siRNA sequence, it was confirmed that there is no significant similarity to other sequences in the database. […] HUVECs were used for siRNA transfection. The cells were transfected to the final concentration of 20 nM with FPRL1 siRNA (SEQ ID NO. 3 and SEQ ID NO. 4) or transfected with luciferase siRNA (SEQ ID NO. 11 and SEQ ID NO. 12) as control. At this time, a lipofectamine reagent (Invitrogen Life Technologies) was used according to the manufacturer's instruction. The cells were washed with serum-free medium, and cultured with the transfection mixture to which medium containing 20% (v/v) FBS was added for 4.5 hours. 24 hours and 48 hours after culturing, the cells were collected, and the degree of FPRL1 expression was confirmed by RT-PCR analysis.
All RNAs were separated from the transfected HUVECs according to the manufacturer's instruction using commercially available TRI reagent (Molecular Research Center). First-strand cDNA was synthesized according to the manufacturer's instruction using 3 ug of each DNA-free total RNA sample and oligo(dT)15 and Moloney murine leukemia virus reverse transcriptase (Promega, Wis., USA). […]

HUVECs [1] = assay: HUVEC wound migration assay; format: cell-based, human; conditions: compared to Luciferase siRNA control
Procedure: Specifically, HUVECs inoculated on a 60-mm culture dish to confluence were wounded with the end of a pipette, and treated with linker polypeptide (10^−1˜10^2 nM) or recombinant CTGF (recombinant human CTGF, rhCTGF; BioVendor R&D, NC, USA) (10^1 or 10^2 nM) in Medium 199 to which 1% serum and 1 mM thymidine were added. After culturing 16 hours, the number of cells that migrated over a reference line was counted to quantify the degree of migration, and the cells were photographed with 50× magnification.
(§1) First, 20 ng/ml of VEGF-A was administered to HUVECs, the degree of cell proliferation, cell migration, or tube formation was confirmed by the <Experiment method 9>, and the results are shown in FIGS. 22 to 24. At this time, FPRL1 antagonist WRW4 was additionally added.

HUVECs [2] = assay: HUVEC tube formation on Matrigel; format: cell-based, human; conditions: compared to Luciferase siRNA control
Procedure: Meanwhile, to analyze tube formation, HUVECs were inoculated on the previously polymerized Matrigel (BD Biosciences) layer together with a certain amount of linker polypeptide, rhCTGF or VEGF-A165. After culturing for 18 hours, the shape of the cells was observed by phase-contrast microscopy, and photographed with 40× magnification. By measuring the length of tubes 5 times in LPF (low-power fields) randomly selected from each well using image-Pro Plus v4.5 (Media Cybernetics, Silver Spring, Md.), the degree of tube formation was quantified.
as §1

FPRL1 = biological target: T1, FPRL1 (Homo sapiens, UniProt P25090); assay: ERK phosphorylation in FPRL1/RBL cells (immunoblot); format: cell-based; conditions: vector/RBL, FPR/RBL or FPRL1/RBL cells; conditioned medium or VEGF-A 10 ng/ml 8 hours; WKYMVm 10 nM
T1 construct: expressed in transfected cells; host or cells: rat basophil leukemia RBL-2H3 cells, kept under G418
T1 sequence (P25090 1-351): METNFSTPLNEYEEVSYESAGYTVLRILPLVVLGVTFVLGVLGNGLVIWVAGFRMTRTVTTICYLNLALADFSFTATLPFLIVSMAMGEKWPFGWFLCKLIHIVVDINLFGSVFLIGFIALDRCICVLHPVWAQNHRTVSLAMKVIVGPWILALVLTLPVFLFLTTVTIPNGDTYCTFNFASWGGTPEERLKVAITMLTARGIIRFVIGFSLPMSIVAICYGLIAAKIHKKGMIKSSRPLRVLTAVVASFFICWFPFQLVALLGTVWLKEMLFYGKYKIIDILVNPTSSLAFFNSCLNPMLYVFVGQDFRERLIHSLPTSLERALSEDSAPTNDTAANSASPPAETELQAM
Procedure: Vector/RBL cells, FPR/RBL cells, FPRL1/RBL cells, and HUVECs were cultured to confluence, and serum-starved. The stimulated cells (1×10^5 cells) were washed with PBS twice, dissolved in 1 ml of sample buffer (50 mM Tris-HCl, 100 mM NaCl, 0.1% SDS, 1% Nonidet P-40, 50 mM NaF, 1 mM Na3VO4, 1 μg/ml aprotinin, 1 μg/ml pepstatin, and 1 μg/ml leupeptin), heated at 95° C. for 30 seconds, separated with SDS-PAGE, and then, transferred to a nitrocellulose film. Immunoblot was conducted using anti-phospho-ERK (extracellular signal regulated kinase)1/2 (Thr^202/Tyr^204)(Cell Signaling Technology, Beverly, Mass., USA), anti-ERK1/2 (Cell Signaling Technology, Beverly, Mass., USA), anti-CTGF (Abcam, Cambridge, Mass., USA), anti-Actin (Sigma, St. Louis, Mo., USA), or anti-Flag (Sigma, St. Louis, Mo., USA) antibody, and then, the film was visualized with a chemiluminescence substrate (Amersham Pharmacia).
To confirm this, the inventors obtained conditioned medium (CM) in HUVEC treated with VEGF-A, and FPRL1-overexpressing cells FPRL1/RBL were treated therewith in the concentration of 10 ng/ml or 50 ng/ml for 8 hours. At this time, as positive control, FPRL1 agonistic peptide WKYMVm (Trp-Lys-Tyr-Met-Val-D-Met, SEQ ID NO. 1) was treated with 10 nM.
After the treatment, immunoblot was conducted on cell lysate that was transferred to a nitrocellulose film with anti-phospho ERK (extracellular signal regulated kinase)1/2 and anti-ERK1/2 antibody (Cell Signaling Technology, Beverly, Mass., USA), and then, the film was visualized with a chemiluminescence substrate (Amersham Pharmacia), and the results are shown in FIG. 1.
Meanwhile, the above described vector/RBL, FPR/RBL, or FPRL1/RBL cells were respectively treated with the above conditioned medium or VEGF-A at the concentration of 10 ng/ml for 8 hours, and positive control was treated with 10 nM of agonistic peptide WKYMVm (SEQ ID NO. 1).
As described in the <Experiment method 5>, FPRL1/RBL cells were treated with 40 ug of the HPLC fraction of the conditioned medium for 5 minutes, and the result confirming whether ERK phosphorylation occurred as described in the <Experiment result 1> was shown in FIG. 3.
To confirm whether the purified proteins induce ERK phosphorylation in FPRL1/RBL cells, immunoblot was conducted as described in the <Experiment result 1>, and the results are shown in FIG. 9.
ERK phosphorylation induction of CTGF linker polypeptide was compared to recombinant human CTGF (rhCTGF). Specifically, FPRL1/RBL cells were treated with CTGF linker polypeptide and rhCTGF for 5 minutes at various concentrations, ERK phosphorylation was measured, and the results are shown in FIG. 11. […]

Substance	FPRL1 expression after siRNA (human FPRL1)	effect of siRNA on HUVEC cell migration induced by VEGF-A (HUVECs [1])	effect of siRNA on HUVEC tube formation induced by VEGF-A (HUVECs [2])	ERK phosphorylation, specificity for FPRL1 (FPRL1)
FPRL1 siRNA: sense: UUCACAUCGUGGUGGACAUdTdT (SEQ ID NO. 3), anti-sense: AUGUCCACCACGAUGUGAAdTdT (SEQ ID NO. 4) (dTdT overhangs, chemistry not fully specified)	FPRL1 expression is inhibited	cell migration or tube formation induced by VEGF-A is inhibited	cell migration or tube formation induced by VEGF-A is inhibited	–
Luciferase siRNA: control siRNA, sense: CGUACGCGGAAUACUUCGAdTdT (SEQ ID NO. 11), anti-sense: UCGAAGUAUUCCGCGUACGdTdT (SEQ ID NO. 12) (dTdT overhangs, chemistry not fully specified)	FPRL1 expression is not inhibited	–	–	–
Trp-Lys-Tyr-Met-Val-D-Met [WKYMVm]	–	–	–	induce ERK phosphorylation only in FPRL1-overexpressing FPRL1/RBL cells
